What is called IC50 is the midpoint of a concentration-inhibition curve. The viability, T/C is the result in the treated group divided by that in the control group, in per cent.

Several values for one entry are separate records, joined by “and”; a condition that tells them apart may be missing. Equal values may be shown once.

In the experiment the test system is 786-0 complex spheroid viability. Description: Anticancer human tumor 786-0 cell line growth inhibition.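 On all read-outs here: spheroids exposed to agents for seven days before readout.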 The following applies: for viability, T/C: stronger effect = lower value. The essentials:
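Multicellular complex spheroids of tumor cells with human endothelial cells (HUVEC) and mesenchymal stem cells; the LSD1 inhibitor iadademstat was combined with standard-of-care or investigational agents. Top concentration at or near clinical Cmax, half-log dilutions; final DMSO ≤0.25%.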

The mark [1] stands for this setting: curve of first compound, second compound 0.1 µM.
[2] abbreviates: curve of first compound, second compound 0.316 µM.
Where [3] appears, read: curve of first compound, second compound 1 µM.
The mark [4] stands for this setting: curve of first compound, second compound 3.16 µM.
The mark [5] stands for this setting: curve of first compound, second compound 10 µM.
[6] abbreviates: second compound 0.1 µM, first compound 0.00316 µM.
Where [7] appears, read: second compound 0.1 µM, first compound 0.01 µM.
Where [8] appears, read: second compound 0.1 µM, first compound 0.0316 µM.
The mark [9] stands for this setting: second compound 0.1 µM, first compound 0.1 µM.
[10] abbreviates: second compound 0.1 µM, first compound 0.316 µM.
Setting [11] is: second compound 0.1 µM, first compound 1 µM.
Where [12] appears, read: second compound 0.316 µM, first compound 0.00316 µM.
The mark [13] stands for this setting: second compound 0.316 µM, first compound 0.01 µM.
Where [14] appears, read: second compound 0.316 µM, first compound 0.0316 µM.
[15] abbreviates: second compound 0.316 µM, first compound 0.1 µM.
Where [16] appears, read: second compound 0.316 µM, first compound 0.316 µM.
Setting [17] is: second compound 0.316 µM, first compound 1 µM.
Setting [18] is: second compound 1 µM, first compound 0.00316 µM.
Setting [19] is: second compound 1 µM, first compound 0.01 µM.
The mark [20] stands for this setting: second compound 1 µM, first compound 0.0316 µM.
Setting [21] is: second compound 1 µM, first compound 0.1 µM.
The mark [22] stands for this setting: second compound 1 µM, first compound 0.316 µM.
Where [23] appears, read: second compound 1 µM, first compound 1 µM.
Where [24] appears, read: second compound 3.16 µM, first compound 0.00316 µM.
[25] abbreviates: second compound 3.16 µM, first compound 0.01 µM.
Where [26] appears, read: second compound 3.16 µM, first compound 0.0316 µM.
Where [27] appears, read: second compound 3.16 µM, first compound 0.1 µM.
Where [28] appears, read: second compound 3.16 µM, first compound 0.316 µM.
[29] abbreviates: second compound 3.16 µM, first compound 1 µM.
Setting [30] is: second compound 10 µM, first compound 0.00316 µM.
[31] abbreviates: second compound 10 µM, first compound 0.01 µM.
[32] abbreviates: second compound 10 µM, first compound 0.0316 µM.
The mark [33] stands for this setting: second compound 10 µM, first compound 0.1 µM.
Setting [34] is: second compound 10 µM, first compound 0.316 µM.
The mark [35] stands for this setting: second compound 10 µM, first compound 1 µM.

On to `COc1cc(Nc2ncc3c(n2)-c2ccc(Cl)cc2C(c2c(F)cccc2OC)=NC3)ccc1C(=O)O` + NC1CC1c1ccc(-c2cccc(O)c2)cc1, for which the half-inhibitory concentration (IC50) came out at 584 nM under setting [1]; 638 nM under setting [2]; 431 nM under setting [3]; 588 nM under setting [4]; 955 nM under setting [5]. The viability, T/C is, setting by setting: under setting [6], 96.3%; under setting [7], 86.8%; under setting [8], 69%; under setting [9], 65%; under setting [10], 55.5%; under setting [11], 45.4%. The viability, T/C reads like this: under setting [12], 105%; under setting [13], 94.5%; under setting [14], 77%; under setting [15], 67.1%; under setting [16], 55.4%; under setting [17], 46.4%. The viability, T/C was 93.3% under setting [18]; 83.6% under setting [19]; 70.3% under setting [20]; 66.9% under setting [21]; 52% under setting [22]; 42.2% under setting [23]. The viability, T/C runs as follows: under setting [24], 89.7%; under setting [25], 86.1%; under setting [26], 68.5%; under setting [27], 66.1%; under setting [28], 56.9%; under setting [29], 44.7%. Moreover, the viability, T/C under setting [30] was 84.6%; the viability, T/C under setting [31] is 77.7%; the viability, T/C under setting [32] was 67.9%; the viability, T/C under setting [33] was 72.2%; the viability, T/C under setting [34] was 56.7%; the viability, T/C under setting [35] was 49.4%.

With `CC1COCCN1c1cc(-c2ccnn2C)c2ccnc(-c3ccn[nH]3)c2n1` (stereo not given) + NC1CCC(NC2CC2c2ccccc2)CC1, the IC50 by setting is: under setting [1], 37.3 nM; under setting [2], 36.9 nM; under setting [3], 30.7 nM; under setting [4], 22.4 nM; under setting [5], 12.4 nM. Also, the viability, T/C is, setting by setting: under setting [6], 112%; under setting [7], 110%; under setting [8], 55.5%; under setting [9], 16.3%; under setting [10], 8.21%; under setting [11], 10.2%. Moreover, the viability, T/C under setting [12] was 123%; the viability, T/C under setting [13] was 114%; the viability, T/C under setting [14] is 55.1%; the viability, T/C under setting [15] was 16.2%; the viability, T/C under setting [16] is 7.09%; the viability, T/C under setting [17] was 12.1%. Further, the viability, T/C is, setting by setting: under setting [18], 116%; under setting [19], 104%; under setting [20], 48.3%; under setting [21], 15.1%; under setting [22], 5.97%; under setting [23], 11.4%. Besides, the viability, T/C runs as follows: under setting [24], 107%; under setting [25], 83.1%; under setting [26], 35.9%; under setting [27], 12.4%; under setting [28], 5.34%; under setting [29], 9.25%. Further, the viability, T/C was 77.4% under setting [30]; 57% under setting [31]; 19.2% under setting [32]; 5.5% under setting [33]; 3.62% under setting [34]; 12% under setting [35].

`Nc1ncn(C2CC(O)C(CO)O2)c(=O)n1` (stereo not given): the viability, T/C is, setting by setting: (compound 0.00316 µM) 101% and 107%; (compound 0.01 µM) 92.9% and 108%; (compound 0.0316 µM) 87.4% and 97.4%; (compound 0.1 µM) 77.8% and 93.8%; (compound 0.316 µM) 68.4% and 82.3%; (compound 1 µM) 53.7% and 76.3%. The concentration for half-maximal inhibition (IC50) (curve of compound) is over 1000 nM.

As for `NC1CCC(NC2CC2c2ccccc2)CC1` (stereo not given), the viability, T/C is 114% [middle of 25 runs] (compound 0.1 µM); 113% and 132% (compound 0.316 µM); 112% [middle of 25 runs] (compound 1 µM); 106% [middle of 25 runs] (compound 3.16 µM); 85.4% [middle of 23 runs] (compound 10 µM). For the same compound, the IC50 (compound alone, run of 11/29/2021) was over 10000 nM.

As for `NC1CC1c1ccc(-c2cccc(O)c2)cc1` (stereo not given), the viability, T/C reads like this: (compound 0.316 µM) 110% [middle of 25 runs]; (compound 10 µM) 89.2% [middle of 25 runs]. For the setting “compound alone, run of 12/07/2021”, the concentration for half-maximal inhibition (IC50) was over 10000 nM.

Consider `CCc1c2c(nc3ccc(O)cc13)-c1cc3c(c(=O)n1C2)COC(=O)[C@]3(O)CC`, for which the viability, T/C by setting is: (compound 0.000949 µM) 6% and 6.39%; (compound 0.003 µM) 4.1% and 4.99%; (compound 0.00949 µM) 3.66% and 5.52%; (compound 0.03 µM) 3.36% and 6.78%; (compound 0.0949 µM) 4.94% and 9.67%; (compound 0.3 µM) 3.44% and 9.65%. For the same compound, the IC50 (curve of compound) is under 0.949 nM.

Take `Cn1ncnc1C1c2n[nH]c(=O)c3cc(F)cc(c23)NC1c1ccc(F)cc1` (stereo not given): the viability, T/C is 102% and 101% (compound 0.000316 µM); 108% (compound 0.001 µM); 98.2% and 97.5% (compound 0.00316 µM); 98.3% and 97.5% (compound 0.01 µM); 100% and 92.3% (compound 0.0316 µM); 97.7% and 89.8% (compound 0.1 µM). The IC50 (curve of compound) was over 100 nM.

As for `COc1ccc([C@@H](O)c2cc(-c3ncnc4cc(N5CCOCC5)ccc34)c(F)cc2Cl)nn1` + NC1CCC(NC2CC2c2ccccc2)CC1, the IC50 is, setting by setting: under setting [1], 8630 nM; under setting [2], 8980 nM; under setting [3], 7650 nM; under setting [4], 7270 nM; under setting [5], 4560 nM. Further, the viability, T/C was 115% under setting [8]; 118% under setting [9]; 119% under setting [10]; 108% under setting [11]; 72.6% (second compound 0.1 µM, first compound 3.16 µM); 46.7% (second compound 0.1 µM, first compound 10 µM). Besides, the viability, T/C under setting [14] was 127%; the viability, T/C under setting [15] was 123%; the viability, T/C under setting [16] was 119%; the viability, T/C under setting [17] is 110%; the viability, T/C (second compound 0.316 µM, first compound 3.16 µM) is 72.7%; the viability, T/C (second compound 0.316 µM, first compound 10 µM) is 47.8%. Besides, the viability, T/C runs as follows: under setting [20], 115%; under setting [21], 116%; under setting [22], 110%; under setting [23], 104%; (second compound 1 µM, first compound 3.16 µM) 69.9%; (second compound 1 µM, first compound 10 µM) 44%. Further, the viability, T/C was 104% under setting [26]; 116% under setting [27]; 104% under setting [28]; 95.8% under setting [29]; 67.4% (second compound 3.16 µM, first compound 3.16 µM); 43.4% (second compound 3.16 µM, first compound 10 µM). Moreover, the viability, T/C is, setting by setting: under setting [32], 89.8%; under setting [33], 81%; under setting [34], 84.7%; under setting [35], 81.6%; (second compound 10 µM, first compound 3.16 µM) 56.6%; (second compound 10 µM, first compound 10 µM) 35.8%.

These data come from PubChem BioAssay AID1918944 (Molecular Pharmacology Branch, DTP, NCI, 2023).
